Consider twelve compounds from ChEMBL document CHEMBL3244420, “Pyrrole esters of tropanols and related structures as analgesics” (J Med Chem, 1977).

The structures appear in SMILES notation. Active and inactive are the calls of the source. The rule behind the calls is not given here.

Data set [1] deals with Mus musculus. Kind of data set: Analgesic activity in sc dosed mouse by hot plate method. The format is functional. For orientation: Hot-plate and tail-flick tests time the reaction to a heat stimulus.
Data set [2] has as its system Rhesus monkey. Kind of data set: Toxicity in nonwithdrawn monkey assessed as precipitation of abstinence at 5 mg/kg. The format is organism-based, Macaca mulatta. Also noted: dose 5 mg/kg. The settings on record: in vivo.
The test system of data set [3] is Rhesus monkey. Nature of the data set: Suppression of narcotic abstinence syndrome in monkey at 5 mg/kg administered as single dose. On the set-up: dose 5 mg/kg. The format is functional, organism-based. The settings on record: Macaca mulatta.
The test system of data set [4] is Mus musculus. Nature of the data set: Analgesic activity in sc dosed mouse by Nilsen method. The format is functional.
The subject of data set [5] is Rhesus monkey. Nature of the data set: Toxicity in monkey assessed as morphine-like dependence liability. The format is organism-based, Macaca mulatta. The settings on record: in vivo.
Data set [6] deals with Mus musculus. Nature of the data set: Analgesic activity in mouse at 100 mg/kg, sc by hot plate method. The format is functional, organism-based. Also noted: dose 100 mg/kg.
The subject of data set [7] is Mus musculus. Nature of the data set: Analgesic activity in mouse at 20 mg/kg, sc by hot plate method. The format is functional, organism-based. On the set-up: dose 20 mg/kg.
Data set [8] deals with Rhesus monkey. Kind of data set: Suppression of narcotic abstinence syndrome in monkey at 3 to 24 mg/kg. The format is functional, organism-based. Particulars: Macaca mulatta.
Data set [9] relates to Rhesus monkey. Kind of data set: Toxicity in monkey assessed as precipitation of abstinence at 3 to 24 mg/kg. The format is organism-based, Macaca mulatta. On the set-up: dose 3-24 mg/kg. The settings on record: in vivo.
Data set [10] concerns Mus musculus. Nature of the data set: Analgesic activity in mouse at 50 mg/kg, sc by hot plate method. The format is functional, organism-based. Also noted: dose 50 mg/kg.

By ED50 is commonly meant the dose at which the effect has come halfway, by size or by number of responders. In the data set with Mus musculus [1], `Cc1[nH]c(C)c(C(=O)OC2CCN(Cc3ccccc3)CC2)c1C.Cl.O` yielded an ED50 of 6.3 mg/kg.
Regarding `Cc1[nH]c(C)c(C(=O)OC2CCN(C)CC2)c1C.O=C(O)C(F)(F)F`, the Activity result in the data set on Rhesus monkey [2] and in the data set with Rhesus monkey [5] was “Non-toxic” throughout. Besides, the outcome in the data set with Rhesus monkey [3] was inactive. The results for the 50% effective dose (ED50) in the data set on Mus musculus [4] and in the data set with Mus musculus [1] were 7.1 mg/kg and 4.9 mg/kg, respectively.
In the data set with Mus musculus [1], `Cc1[nH]c(C)c(C(=O)OC2CCN(C)C2)c1C.Cl.O` (stereo unspecified) yielded a median effective dose (ED50) of 64.3 mg/kg.
With `Cc1[nH]c(C)c(C(=O)OC2CCCN(C)C2)c1C` (stereo unspecified), in the data set with Mus musculus [6], the outcome was inactive.
`Cc1c(C(=O)OC2CCN(C)CC2)c(C)n(C)c1C`: the result in the data set with Mus musculus [7] was Active.
With `Cc1[nH]c(C)c(C(=O)O[C@@H]2[C@H]3O[C@H]4C[C@@H]2N(C)[C@H]3C4)c1C`, the 50% effective dose (ED50) is 28.9 mg/kg in the data set on Mus musculus [4] and 6 mg/kg in the data set with Mus musculus [1]. Also, in the data set with Rhesus monkey [8], the result was inactive. Besides, the Activity result with Rhesus monkey [9] is given as “Non-toxic”.
`Cc1[nH]c(C)c(C(=O)OC2CC(C)(C)NC(C)(C)C2)c1C`: the outcome in the data set with Mus musculus [6] was inactive.
For `CN1CC[C@]23c4c5ccc(O)c4O[C@H]2[C@@H](O)C=C[C@H]3[C@H]1C5` [MORPHINE], the values for the ED50 in the data set with Mus musculus [4] and with Mus musculus [1] were 0.8 mg/kg and 1.2 mg/kg, respectively.
`Cc1[nH]c(C)c(C(=O)O[C@@H]2C[C@H]3CC[C@@H](C2)N3C)c1C`: the result in the data set on Mus musculus [10] was Active.
In the case of `COc1ccc2c3c1O[C@H]1[C@@H](O)C=C[C@H]4[C@@H](C2)N(C)CC[C@@]341` [CODEINE], the 50% effective dose (ED50) in the data set on Mus musculus [4] is 4.5 mg/kg; in the data set on Mus musculus [1], 7.5 mg/kg.
With `Cc1[nH]c(C)c(C(=O)OC2CCN(CCc3ccccc3)CC2)c1C`, the outcome in the data set with Mus musculus [7] was Active.
In the data set on Mus musculus [1], `Cc1[nH]c(C)c(C(=O)O[C@H]2C[C@H]3CC[C@@H](C2)N3C)c1C.O.O=C(O)C(F)(F)F` returned an ED50 of 21.3 mg/kg.
